In the assay the test system is CD34+ myeloblast cells in healthy BMMCs. In words: Effects of therapeutics on healthy bone marrow mononuclear cells: CD45 versus CD34 expression by flow cytometry. The assay is classed as cell-based. The note with it: live healthy BMMCs, 1:3 dilutions, 100 μM to 0.0017 μM, after 24 hours. For orientation: Flow cytometry measures light scatter and fluorescence of single cells or particles in a stream.

Each structure is given as a SMILES string. Entries after “also recorded” stand apart in the source; their conditions may differ.

`Nc1ncn([C@@H]2O[C@H](CO)[C@@H](O)[C@H]2O)c(=O)n1` [5-Azacytidine]: the “loss / viability of the rare population of CD34+ myeloblast cells” value was “dose-dependent loss of a rare population of CD34+ myeloblast cells; also recorded: concentration dependent loss of CD34+ myeloblast cells”.
On to `O=C(CCCCCCC(=O)Nc1ccccc1)NO` [Vorinostat], for which the “loss / viability of the rare population of CD34+ myeloblast cells” value is “selective loss of rare population of CD34+ myeloblast cells in a dose-dependent fashion; also recorded: concentration dependent loss of CD34+ myeloblast cells”.

Source of the values: patent US20140134648A1, “METHODS OF DETERMINING THE HEALTH STATUS OF AN INDIVIDUAL” (NODALITY, INC., priority 2008, published 2014).
